Source: ChEMBL document CHEMBL1137316, “Discovery of S-(2-guanidylethyl)-isothiourea (VUF 8430) as a potent nonimidazole histamine H4 receptor agonist” (J Med Chem, 2006)
Calls of active or inactive are those of the source. No cut-off for these calls is given here.

Legend:
[1] = biological target: Histamine H4 receptor (Homo sapiens, UniProt Q9H3N8); experiment: Displacement of [3H]histamine from human histamine H4 receptor
[2] = biological target: Histamine H2 receptor (Cavia porcellus) (UniProt P47747); experiment: Activity at human histamine H2 receptor in guinea pig right atrium; type: functional, tissue-based; details: Cardiac atrium
Sequence of Histamine H2 receptor (Cavia porcellus) (P47747 whole entry): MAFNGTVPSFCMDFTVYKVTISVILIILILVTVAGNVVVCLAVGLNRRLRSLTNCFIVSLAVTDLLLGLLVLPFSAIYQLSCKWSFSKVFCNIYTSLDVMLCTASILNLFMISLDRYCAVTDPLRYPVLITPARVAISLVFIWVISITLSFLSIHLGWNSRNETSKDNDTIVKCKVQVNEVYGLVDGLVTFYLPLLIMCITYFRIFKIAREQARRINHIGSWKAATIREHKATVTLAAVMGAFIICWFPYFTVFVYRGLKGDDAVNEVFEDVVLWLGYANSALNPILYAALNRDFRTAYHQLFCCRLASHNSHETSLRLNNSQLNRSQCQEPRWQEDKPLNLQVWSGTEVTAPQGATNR

[3] = biological target: Histamine H2 receptor (Homo sapiens) (UniProt P25021); experiment: Agonist activity at human histamine H2 receptor; type: functional
Sequence of Histamine H2 receptor (Homo sapiens) (P25021 whole entry): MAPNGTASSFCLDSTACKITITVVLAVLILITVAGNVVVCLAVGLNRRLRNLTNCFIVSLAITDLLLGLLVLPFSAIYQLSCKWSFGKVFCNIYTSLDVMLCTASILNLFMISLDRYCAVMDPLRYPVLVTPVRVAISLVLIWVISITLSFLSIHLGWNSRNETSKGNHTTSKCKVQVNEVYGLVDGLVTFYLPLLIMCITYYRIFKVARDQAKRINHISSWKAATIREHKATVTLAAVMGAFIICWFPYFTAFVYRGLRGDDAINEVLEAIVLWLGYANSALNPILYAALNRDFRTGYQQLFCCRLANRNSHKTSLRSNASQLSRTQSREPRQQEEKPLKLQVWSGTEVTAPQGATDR

[4] = biological target: Histamine H1 receptor (Homo sapiens) (UniProt P35367); experiment: Agonist activity at human histamine H1 receptor at 100 uM; type: functional
Sequence of Histamine H1 receptor (Homo sapiens) (P35367 whole entry): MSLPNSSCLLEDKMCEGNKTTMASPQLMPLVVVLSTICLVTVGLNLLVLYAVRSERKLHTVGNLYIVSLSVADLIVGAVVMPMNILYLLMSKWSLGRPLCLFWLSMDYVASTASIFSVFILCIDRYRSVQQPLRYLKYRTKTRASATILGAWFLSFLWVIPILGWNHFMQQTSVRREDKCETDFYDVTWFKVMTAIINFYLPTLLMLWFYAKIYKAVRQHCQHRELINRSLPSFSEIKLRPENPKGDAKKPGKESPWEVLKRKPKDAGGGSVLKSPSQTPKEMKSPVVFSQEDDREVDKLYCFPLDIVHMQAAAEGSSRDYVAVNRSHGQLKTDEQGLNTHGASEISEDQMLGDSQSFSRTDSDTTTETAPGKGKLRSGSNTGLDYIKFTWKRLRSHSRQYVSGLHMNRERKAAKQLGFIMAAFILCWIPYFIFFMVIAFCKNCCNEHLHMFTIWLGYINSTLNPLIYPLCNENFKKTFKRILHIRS

[5] = biological target: T1, Histamine H3 receptor (Homo sapiens, UniProt Q9Y5N1); experiment: Displacement of [3H]Nalpha-methylhistamine from human histamine H3 receptor expressed in SK-N-MC cells; type: cell-based
T1 sequence (Q9Y5N1 whole entry): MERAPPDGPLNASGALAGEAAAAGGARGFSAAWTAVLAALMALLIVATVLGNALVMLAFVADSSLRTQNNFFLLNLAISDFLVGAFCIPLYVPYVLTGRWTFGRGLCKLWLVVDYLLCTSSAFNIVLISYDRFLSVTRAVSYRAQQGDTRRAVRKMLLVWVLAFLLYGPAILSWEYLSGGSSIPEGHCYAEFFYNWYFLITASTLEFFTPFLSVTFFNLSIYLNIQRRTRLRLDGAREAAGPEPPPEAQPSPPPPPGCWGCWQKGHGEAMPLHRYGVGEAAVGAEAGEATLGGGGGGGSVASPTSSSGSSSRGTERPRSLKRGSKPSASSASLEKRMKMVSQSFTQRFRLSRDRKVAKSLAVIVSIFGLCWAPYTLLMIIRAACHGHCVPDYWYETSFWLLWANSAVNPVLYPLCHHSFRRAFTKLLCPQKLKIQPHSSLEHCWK

[6] = biological target: T1, Histamine H3 receptor; experiment: Agonist activity at human histamine H3 receptor in SK-N-MC cells assessed as inhibition of forskolin-induced cAMP-mediated CRE-beta galactosidase activity; type: functional, cell-based

Sequence of Histamine H4 receptor (Q9H3N8 whole entry): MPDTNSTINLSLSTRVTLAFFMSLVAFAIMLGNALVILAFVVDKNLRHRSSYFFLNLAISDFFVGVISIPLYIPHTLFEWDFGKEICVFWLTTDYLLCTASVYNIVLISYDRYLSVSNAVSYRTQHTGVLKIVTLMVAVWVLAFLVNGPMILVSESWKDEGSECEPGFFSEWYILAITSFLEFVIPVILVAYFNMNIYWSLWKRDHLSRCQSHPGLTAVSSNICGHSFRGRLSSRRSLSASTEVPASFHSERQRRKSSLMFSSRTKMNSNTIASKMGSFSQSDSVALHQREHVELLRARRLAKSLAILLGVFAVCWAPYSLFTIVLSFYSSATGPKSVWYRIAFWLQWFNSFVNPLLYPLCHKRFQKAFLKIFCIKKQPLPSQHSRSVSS

Structure (SMILES): N=C(N)SCCSC(=N)N
- Ki [1]: 0.251 µM

Structure (SMILES): N=C(N)NCCSC(=N)N
- Intrinsic activity [2]: 0.4
- pD2 [2]: 3.8
- Activity [3]: 50%
- Activity [4]: inactive
- Ki [5]: 1 µM
- Intrinsic activity [6]: 1

Structure (SMILES): N=C(N)NCCCSC(=N)N
- Ki [1]: 7.94 µM

Structure (SMILES): N=C(N)NCCCCSC(=N)N
- Ki [1]: 3.16 µM

Structure (SMILES): N=C(N)NCCNC(=N)N
- Ki [1]: 0.398 µM

Structure (SMILES): N=C(N)NCCCCCCSC(=N)N
- Ki [1]: 3.98 µM
